Measured values taken from patent publication US20230047766A1, “MEDICAL DEVICE, THERAPEUTIC METHOD, AND DIAGNOSTIC METHODS FOR THE TREATMENT AND PREVENTION OF VASOSPASM” (Sylvian Inc., priority 2020, published 2023).

How the values were obtained:
[1] = test system: vasospasm associated with SAH; conditions: animal studies; high concentrations (~7%) in cranial ventricles; cited from earlier work
[2] = solubility of trehalose in water (saturated trehalose solution); format: physicochemical; conditions: 20° C.
Description: FIGS. 4A-4G are graphs showing simulations of trehalose concentrations in human CSF to determine clinical dose regimens. The simulations assume that a CSF volume of a human is approximately 140 mL and that the CSF exchange rate is approximately […]. […] In the simulations, the trehalose is administered by a bolus injection, and is equally distributed in the CSF immediately after the injection. For the simulations below, a saturated trehalose solution was prepared by dissolving 68.9 g of trehalose per 100 g of water at 20° C.
FIG. 4A is a graph 400 showing a simulation of trehalose concentration 410 in human CSF to determine a clinical dose regimen. In this example simulation, 9.8 g of trehalose was estimated to be required to achieve a 7 wt % trehalose concentration in the CSF immediately after injection.

[3] = test system: dogs; experiment: intrathecal (IT) administration to dogs: Evans blue distribution and maximum dose volume of saline for 30 minutes; format: in vivo; conditions: anesthetized dogs, approx. 1 mL of 0.5% solution, catheter near the bregma
Description: A second experiment was conducted to establish a procedure of IT administration to dogs to determine the maximum dose volume by IT administration of saline for 30 minutes. An approximately 1 mL of 0.5% Evans blue solution was administered to 4 anesthetized dogs via a catheter placed in the subarachnoid space near the bregma. After the administration, the animals were necropsied, and the CNS was macroscopically observed to verify the distribution of the Evans blue solution. In addition, 8 or 4 mL of saline, which is considered to be respectively approximately […] of a total volume of CSF, was administered to 6 unanesthetized dogs under a restrained condition. Saline was administered during the dosing and until 1 hour after dosing. The animals were necropsied on the next day of dosing and the CNS were macroscopically observed.

[4] = test system: rats; experiment: intrathecal (IT) administration to rats: Evans blue distribution and maximum dose volume of saline for 30 minutes; conditions: rat, in vivo
Description: A first experiment was conducted to establish a procedure of intrathecal (IT) administration to rats to determine the maximum dose volume by IT administration of saline for 30 minutes. An approximately 30 μL of 1.0% Evans blue solution was administered to 6 anesthetized rats via a catheter placed in the subarachnoid space in the cisternal magna. After administration, the animals were necropsied, and the central nervous system (CNS) including the brain and cervical spinal cord were macroscopically observed to verify the distribution of Evans blue solution. In addition, 0.125, 0.25, 0.5, and 1.0 mL of saline, which is considered to be respectively approximately ½, equal, 2-fold, and 4-fold of a total volume of CSF in rats, was administered to 1 or 3 unanesthetized rats per dose volume. Saline was administered for 30 minutes using an infusion pump. Clinical signs were observed during the dosing and until 1 hour after dosing. The animals were necropsied on the next day of dosing and the CNS were macroscopically observed.

[5] = test system: ET-1; conditions: intravenous; clinical trial databases; cited from earlier work

## OC[C@H]1O[C@H](O[C@H]2O[C@H](CO)[C@@H](O)[C@H](O)[C@H]2O)[C@H](O)[C@@H](O)[C@@H]1O [trehalose]
[1]
  effect on inflammatory cascade and vasospasm associated with SAH: significant inhibition of the inflammatory cascade and vasospasm
[2]
  trehalose dissolved for a saturated solution: 68.9 g per 100 g of water

## Cc1cc(-c2ccc(/N=N/c3ccc4c(S(=O)(=O)O)cc(S(=O)(=O)O)c(N)c4c3O)c(C)c2)ccc1/N=N/c1ccc2c(S(=O)(=O)O)cc(S(=O)(=O)O)c(N)c2c1O [Evans blue solution, Evans blue]
[3]
  distribution after IT administration (macroscopic observation): distributed to the subarachnoid space of the whole cerebral cortex
[4]
  distribution after IT administration (macroscopic observation): distributed to the subarachnoid space of the cisterna magna, the bottom of the brain, and the cervical spinal cord in all animals

## COc1ccccc1Oc1c(NS(=O)(=O)c2ccc(C)cn2)nc(-c2ccnc(-c3nnn[nH]3)c2)nc1OCCO [Clozasentan]
[5]
  effect on vasospasm: reversal of vasospasms in large arteries
